Laboratory results published in patent publication US20150246137A1, “LIPID COATED NANOPARTICLES CONTAINING AGENTS HAVING LOW AQUEOUS AND LIPID SOLUBILITIES AND METHODS THEREOF” (THE UNIVERSITY OF NORTH CAROLINA AT CHAPEL HILL, priority 2012, published 2015).
“Also recorded” adds a separate entry of the source.

Key:
[1] = test system: A375M cells; test: Cell toxicity assay (MTS); format: cell-based, human; conditions: 48 h, read-out: IC50, growth inhibition
Procedure: (§1) A375M cells were seeded in 96-well plates at a density of 2000 cells/well and incubated in 10% FBS of DMEM containing 100 U/mL penicillin and […] streptomycin for 20 h. The medium was removed and replaced by Opti-MEM containing CDDP or LPC NPs. Forty-eight hours later, a CellTiter 96 AQueous One Solution Cell Proliferation Assay (Promega, Madison, Wis.) kit containing the tetrazolium compound MTS was used to assay cell viability according to the manufacturer's protocols. The IC50 values were calculated using Graphpad Prism 5 (Graphpad Software Inc.)

[2] = test system: 1205Lu cells; test: Cell toxicity assay (MTS); format: cell-based, human; conditions: 48 h
Procedure: as §1, with “1205Lu” for “A375M”, “penicillin,” for “penicillin”, “Then, the” for “The”, “protocols.” for “protocols. The IC50 values were calculated using Graphpad Prism 5 (Graphpad Software Inc.)”

[3] = Biodistribution of Pt in A375M tumor-bearing mice; format: in vivo; conditions: twenty-four hours post-IV injection, 1.0 mg/kg Pt
Procedure: […] Tissue samples were digested by concentrated nitric acid overnight at room temperature and processed according to the procedure reported previously the literature.119, 120 The concentration of Pt was measured using ICP-MS.

[4] = test system: A375M melanoma xenograft tumors; test: In vivo anticancer efficacy, A375M xenograft; set-up: species or system nude mice; conditions: weekly IV, 1.0 mg/kg Pt
Procedure: All procedures involving experimental mice are performed in accordance with the protocols conformed to the Guide for the Care and Use of Laboratory Animals (NIH publication No. 86-23, revised 1985). Female athymic nude mice, 5-6 weeks old and weighing 18-22 g were obtained. 5×10^6 A375M cells were injected subcutaneously into the mice. After 10 days, the mice were randomly divided into four groups (4-6 mice per group). The mice were treated with weekly IV injections of CDDP and LPC NPs and saline as a control. A dose of 1.0 mg/kg Pt was administered. Thereafter, tumor growth and body weight were monitored. Tumor volume was calculated using the following formula: TV=(L×W^2)/2, with W being smaller than L. Finally, mice were sacrificed using a CO2 inhalation method.
After the therapeutic experiment was complete, blood samples were collected and allowed to clot for 2 h at room temperature. […] For liver and renal function experiments, the levels of aspartate aminotransferase, alanine aminotransferase, and blood urea nitrogen in the serum were measured. […]
The tumors were fixed in 4.0% paraformaldehyde (PFA), paraffin-embedded, and sectioned. […] TUNEL-positive nuclei were monitored by using a fluorescence microscope (Nikon, Tokyo, Japan). […] TUNEL-positive cells in three slides of images taken at 40× magnification were counted to quantify apoptosis.

[5] = test system: 1205Lu xenograft tumors; test: In vivo anticancer efficacy, 1205Lu xenograft; set-up: species or system nude mice; conditions: 2.0 mg/kg Pt
Procedure: Female athymic nude mice, 5-6 weeks old and weighing 18-22 g were obtained. 1205Lu xenograft tumors were developed through subcutaneous injection of approximately 5 million 1205Lu cells in female nude mice. […] Tumor growth and body weight were monitored. Tumor volume was calculated using the following formula: TV=(L×W^2)/2, with W being smaller than L. Finally, mice were sacrificed by CO2 inhalation. Tumors were collected after treatment and were formalin fixed and processed for TUNEL assay.
The tumors were fixed in 4.0% paraformaldehyde (PFA) and subsequently paraffin-embedded and sectioned. To detect apoptotic cells in tumor tissues, a TUNEL assay, using a DeadEnd™ Fluorometric TUNEL System (Promega, Madison, Wis.), was performed, following the manufacturer's protocol. Cell nuclei, which were stained with green fluorescence, are defined as TUNEL-positive nuclei. TUNEL-positive nuclei were monitored using a fluorescence microscope (Nikon, Tokyo, Japan). The cell nuclei were stained with 4, 6-diaminidino-2-phenyl-indole (DAPI) (Vectashield, Vector Laboratories, Inc., Burlingame, Calif.). To quantify TUNEL-positive cells, green-fluorescence-positive cells are counted in three images taken at 40× magnification.

[6] = test system: A375M cells; test: In vitro neighboring effect study (co-culture, Annexin V); format: cell-based, human; conditions: 48 h co-culture 1:10, A375M-GFP pretreated 50 μM Pt 4 h
Procedure: A375M-GFP cells (2×10^5) were seeded in 6-well plates (Corning Inc., Corning, N.Y.) 20 h before the beginning of the experiments. […] The A375M-GFP cells were mixed with A375M cells at the ratio of 1:10 (total cell number: 2×10^5) and reseeded into 6-well plates. After culturing for 48 h, the cells were stained with Hoechst 33342 (Sigma, St Louis, Mo.) and Annexin V Alexa Fluor® 568 Conjugate (Invitrogen, Carlsbad, Calif.). […] Results were processed using the Cellquest software (Becton-Dickinson).

[7] = Kidney and liver function parameters; format: in vivo, mice
From the text: To evaluate the kidney toxicity, organs were taken for histopathological observation using H&E staining. […] We also did a pathologic examination by H&E staining of other major organs (liver, lung, spleen and heart) from mice that received long-term treatments (not shown). […] Finally, we tested the blood parameters. Levels of secreted liver enzymes (AST and ALT), and blood urea nitrogen were all unchanged after a four-dose treatment with LPC or LPI, indicating a lack of damage to the liver and the kidneys (Table 2).
After the therapeutic experiment was complete, blood samples were collected and allowed to clot for 2 h at room temperature. Serum was obtained through centrifugation for 20 min at 2,000 g. For liver and renal function experiments, the levels of aspartate aminotransferase, alanine aminotransferase, and blood urea nitrogen in the serum were measured. Major organs were collected after treatment and were formalin fixed and processed for routine H&E staining using standard methods. Images were collected using a Nikon light microscope (Nikon). After the A375M tumor reached 600 mm^3, the mice were treated with two weekly IV injections of LPC NPs at a dose of 3.0 mg/kg Pt. Seven days post the last injection, the mice were sacrificed and the tumors are assayed with TUNEL.

[8] = H&E histopathology of organs; format: in vivo, mice; conditions: long-term treatments
[9] = test system: H460 cells; test: In vitro cell viability assay (MTT); format: cell-based, human; conditions: NCI-H460, 36 h
Procedure: In vitro cell viability of IEP nanoparticles was determined by using the 3-[4,5-dimethylthiazol-2-yl]-2,5-diphenyltetrazolium bromide (MTT) assay. H460 cells were seeded at a density of 1×10^4 per well in96-well plates 24 hours prior to treatment. The cells were treated with different concentrations of IEP-PEG, IEP-PEG AA, free Indium chloride, free outer liposome and free etoposide phosphate for 36 h. The concentrations of indium chloride and free liposomes were maintained in equal mounts used for IEP-PEG and IEP-PEG AA. The medium was replaced with fresh medium containing 5% MTT (Biosynth Inc.) solution and incubated at 37° C. for another 4 h. The resulting formazan crystals were solubilized by adding 100 μL DMSO/Methanol (50:50) solution to each well. The absorbance at 570 nm wavelength was measured with a micro plate reader. Cell viability was calculated as the percentage of the absorbance of the treated cells to that of untreated cells.

[10] = test system: caspase-3/7; test: Caspase activation assay; format: cell-based, human; conditions: NCI H-460 cells, 24 h
Procedure: H460 cells (2×10^5) were treated as mentioned above with all formulations. The cells were lysed with a radio-immunoprecipitation assay (RIPA) buffer that was supplemented with a protease inhibitor cocktail (Promega, Madison, Wis.). The protein lysates were collected by centrifugation at 14,000 rpm for 10 min at 4° C. Protein concentrations were determined using the BCA assay kit (Pierce Biotechnology) following the manufacturer's recommendations. Thirty micrograms protein of each sample was used to detect caspase-3/7 activity of the cell lysates by using an in vitro assay kit according to the manufacturer's instructions (Promega).

[11] = test system: PARP-1; test: Western blot analysis for PARP; format: cell-based, human; conditions: H460 cells
Procedure: Forty micrograms of protein per lane was resolved by 4%-12% SDS-PAG Electrophoresis (Invitrogen) before being transferred to polyvinylidenedifluoride (PVDF) membranes (Bio-Rad). The membranes were blocked for 1 h with 5% skim milk at room temperature and then incubated with mouse monoclonal poly (ADPribose) polymerase-1 (PARP-1) antibodies (1:500 dilution; Santa Cruz biotechnology, Inc.) and with β-actin antibody (1:4000 dilution; Santa Cruz biotechnology, Inc.) overnight at 4° C. β-actin was probed as the loading control. The membranes were washed 3 times and then incubated with a secondary antibody (1:4000 dilutions; Santa Cruz biotechnology, Inc.) at room temperature for 1 h. Goat anti-mouse secondary antibody is used for PARP and β-actin primary antibody. Finally, the membranes were washed 4 times and developed by an enhanced chemiluminescence system according to the manufacturer's instructions (Thermo scientific).

[12] = test system: H460 cells; test: Cell cycle analysis (flow cytometry); format: cell-based, human; conditions: H460, 24 h
Procedure: H460 cells (2×10^5) were seeded in 6-well plates 24 h prior to the treatment. The formulations, IEP-PEG, IEP-PEG AA, InCl3, free liposome and free drug were added and incubated for 24 h at 37° C., humidified CO2 incubator. The cells were trypsinized and washed with PBS followed by fixation in pre-cooled 70% ethanol at −20° C. for at least 1 h. Fixed cells were washed with PBS staining buffer (BD Pharmingen, San Diego, Calif.) and incubated with RNAase (final concentration […]) at 37° C. for 30 min, followed by incubation with […] propidium iodide (PI) at room temperature for 30 min. Finally, cells were washed and suspended in PBS, and analyzed with a FACS Canto flow cytometer (BD Biosciences) to measure the PI intensity, which correlates with the DNA content in the cell cycle. A total of 20,000 events are acquired for each sample and data were analyzed with FACS Diva software (BD Biosciences).

[13] = test system: H460 subcutaneous xenograft; test: Tumor growth inhibition study, H460 xenograft; format: in vivo, mice; conditions: IV every other day, EP 5 mg/kg
Procedure: A tumor growth inhibition study was completed on H460 subcutaneous xenograft mouse models. Mice were inoculated with 5×10^6 […] by subcutaneous injection. Treatment was started when the tumor volumes reached about 100-150mm^3. The mice were randomly assigned into treatment groups (n=5), and intravenously injected different formulations, including […] and free EP. Four injections were performed every other day for a total of 4 injections at an EP dose of 5 mg/kg. Tumor sizes were measured every other day with calipers across their two perpendicular diameters, and the tumor volume was calculated using the following formula: […] Body weight of each mouse is recorded every other day. Humane sacrifice of mice was performed when tumors reached 20 mm in one dimension.

[14] = test system: H460 tumor; test: TUNEL and PCNA immunohistochemistry in H460 tumors; format: in vivo, mice; conditions: three daily IV injections, 5 mg/kg
Procedure: In vivo tumor cell apoptosis was determined by TdT-mediated dUTP Nick-End Labeling (TUNEL) assay. […] Twenty-four hours after the final injection, mice were sacrificed and tumors are fixed in 4% paraformaldehyde solution for 12 h before being embedded in paraffin and sectioned at a thickness of 5 μm. The TUNEL staining was performed as recommended by the manufacturer (Promega). DAPI mounting medium (Vector Laboratories, Inc., Burlingame, Calif.) was dropped on the sections for nucleus staining. Images of TUNEL-stained tumor sections were captured with a fluorescence microscope (Nikon Corp., Tokyo, Japan). The percentage of apoptotic cells was obtained by dividing the number of apoptotic cells(TUNEL positive cells shown as green dots) from the number of total cells(blue nuclei stained by DAPI, not shown) in each microscopic field, and 10 representative microscopic fields were randomly selected in each treatment group for this analysis. Proliferation of tumor cells after the aforementioned treatments and dosing schedule was detected by immunohistochemistry, using an antibody against proliferating cell nuclear antigen (PCNA) (1:200 dilution, Santa Cruz). The immunohistochemistry was performed using a mouse-specific HRP/DAB detection IHC kit as recommended by the manufacturer (Abcam, Cambridge, Mass.). […]

Row | SMILES | IC50 [1] | IC50 [2] | accumulation in the tumors [3] | tumor growth [4] | apoptosis in tumor (TUNEL) [5] | tumor growth ([5]; weekly IV) | apoptotic cells in the untreated cell population [6] | AST and ALT functional parameters ([7]; A375M study, FIG. 33) | ALT ([7]; four-dose treatment, mean ± SD) | AST ([7]; four-dose treatment, mean ± SD) | BUN ([7]; four-dose treatment, mean ± SD) | damage of other major organs (H&E) [8] | cell viability / toxicity (MTT) [9] | caspases 3 and 7 activity relative to untreated control [10] | increase in the 89 kDa PARP-1 cleavage product [11] | cells at G2/M phase [12] | tumor growth [13] | PCNA positive cells in tumor sections [14]
1 | N.N.[Cl][Pt][Cl] [CDDP, cis-diaminedichloroplatinum(II)] | 10.2 µM | 12.4 µM | 1.2 % of the injected dose per gram | ineffective; also recorded: not effective at all | 6.3% | partial effect | less than 6% | fall within the normal range | 54.3 ± 9.7 U/L | 105.7 ± 27.1 U/L | 25.7 ± 0.6 mg/dL | no toxicities in heart and lung |  |  |  |  |  | 
2 | COc1cc([C@@H]2c3cc4c(cc3[C@@H](O[C@@H]3O[C@@H]5CO[C@@H](C)O[C@H]5[C@H](O)[C@H]3O)[C@H]3COC(=O)[C@H]23)OCO4)cc(OC)c1OP(=O)(O)O [EP, Etoposide phosphate] |  |  |  |  |  |  |  |  |  |  |  |  | dose-dependent toxicity | 4 fold | readily detectable | About 50% | minimal impact on tumor growth | 75-80%
3 | [Cl-].[Cl-].[Cl-].[In+3] [Indium chloride] |  |  |  |  |  |  |  |  |  |  |  |  | no effect on viability | no effect | no effect | no discernable effect |  | 
